Key:
Assay type in all cases: cell-based
[1] = tested on: Huh7, SNB19, UACC62, MDA-MB-231, KATO III cancer cell lines; experiment: SRB cell proliferation, NPM and etomoxir, cancer cell lines; settings: 25 μM NPM alone, 24 hours; cancer cell lines other than SNB19
[2] = tested on: A549 cells (lung cancer cell line); experiment: Intracellular ATP level with PSA or PA, A549; settings: 2, 4, 6, 8 or 10 mM, 48 hours; compared to an untreated control
Experimental: (§1) Specifically, A549 cells, IMR90 cells, H23 cells, H226 cells, H522 cells, and EKVX cells, which are lung cancer cell lines; and UACC62 cells, MALME-3M cells, A357 cells, M14 cells, and UACC257 cells, which are melanoma cell lines, were separately cultured. […] for 48 hours, and then intracellular ATP levels were examined using an ATP colorimetric/fluorometric analysis kit (BioVision, Milpitas, Calif., USA) in accordance with the manufacturer's protocol. The incubated cells were divided into groups of 1×10^6 cells, 100 μl of an ATP assay buffer was added thereto to lyse the cells, followed by centrifugation at 15,000×g and 4° C. for 2 minutes to separate only the supernatant. 2 μl to 50 μl of the separated supernatant was transferred to a 96-well plate, and then an ATP assay buffer was added thereto to a final volume of 50 μl per well. […] After mixing, the plate was maintained in a dark room at room temperature for 30 minutes, and then absorbance was measured at 570 nm using a microplate reader. To compare relative ATP levels among the measured values, an absorbance value for cancer cells to which gossypol and phenformin were not added was set as a reference, and relative absorbance values of the cases in which cancer cells were treated with each drug were compared, to compare ATP levels in the cells. […]

[3] = tested on: UACC62 cells (melanoma cell line); experiment: Intracellular ATP level with PSA or PA, UACC62; settings: 2, 4, 6, 8 or 10 mM, 48 hours; compared to an untreated control
Experimental: as §1

[4] = tested on: A549 cells (lung cancer cell line); experiment: SRB cell proliferation with PSA, A549; settings: PSA 2, 4, 6, 8 or 10 mM, 48 hours
Experimental: (§2) Specifically, A549 cells, H522 cells, H226 cells, H23 cells, and EKVX cells, which are lung cancer cell lines; and UACC62 cells, UACC257 cells, A375 cells, SK-MEL-5 cells, and MALME-3M cells, which are melanoma cell lines, were separately cultured. The respective cells were cultured at a […] dose and inoculated in a 96-well plate at a concentration ranging from 5,000 cells/ml to 20,000 cells/ml according to the doubling time of each cell line. […] After completion of the culturing, to perform SRB analysis, a cooled 50% aqueous TCA solution was added to each well to a final concentration of 10% and the cells were incubated in a 4° C. refrigerated state for 60 minutes and then fixed. After incubation, the supernatant was removed, washed five times with tap water, and dried. A 1% acetic acid aqueous solution containing 0.4% sulforhodamine B was added to the dried sample in each well and maintained at room temperature for 10 minutes to stain the cells. After staining, the dye which was not used for staining was removed by washing with a 1% acetic acid solution, and then the plate was dried again. The dye which was used for staining was dissolved in a 10 mM Trisma base solution, and then absorbance was measured at 515 nm.
(§3) Specifically, A549 cells (lung cancer cell line), UACC62 cells (melanoma cell line), and IMR90 cells (normal control, lung fibroblasts) were separately cultured. […]

[5] = tested on: UACC62 cells (melanoma cell line); experiment: SRB cell proliferation with PSA, UACC62; settings: PSA 2, 4, 6, 8 or 10 mM, 48 hours
Experimental: as §2, §3

[6] = tested on: IMR90 cells (normal control, lung fibroblasts); experiment: SRB cell proliferation with PSA, IMR90; settings: normal cell line, PSA 2, 4, 6, 8 or 10 mM, 48 hours
[7] = tested on: EKVX, A549, HOP-62 (lung cancer) and UACC62, UACC257, A375 (melanoma) cells; experiment: SRB cell proliferation, MAS inhibitor and gossypol, cancer cell lines; settings: 48 hours
[8] = tested on: cancer cell lines; experiment: Intracellular ATP level, MAS inhibitor and gossypol, cancer cell lines; settings: 10 μM gossypol alone vs 4 mM PSA or PA alone, 48 hours
Experimental: as §1, with “[…],” for “an absorbance value for cancer cells to which gossypol and phenformin were not added was set as a reference,”

[9] = tested on: A549 cells; experiment: Mitochondrial membrane potential (TMRE), A549; settings: 10 μM gossypol alone, 48 hours
Experimental: (§4) Specifically, A549 cells, UACC62 cells, and IMR90 cells, as a normal control, were cultured. The respective cultured cells were treated with a drug mixture of 4 mM of an SLC25A11 inhibitor (PSA or PA), which is an MAS inhibitor, and 10 μM gossypol or with only one of the drugs and cultured in the same manner as described above for 48 hours, and then each cell culture solution was dispensed into chamber slides (for fluorescence microscopy) or a 6-well plate (for flow cytometry). The dispensed culture solution was treated with 100 nM tetramethylrodamine ester (TMRE) as a fluorescent probe and a reaction was allowed to occur therebetween for 20 minutes. After the reaction, the cells were washed with cooled PBS, and the fluorescence development of the cells was measured using a Zeiss LSM510 fluorescence microscope (Carl Zeiss, Oberkochen, Baden-Wurttemberg, Germany). In addition, fluorescence intensity was analyzed in a flow cytometer using a 585 nm (FL-2) channel.

[10] = tested on: IMR90 cells (normal control); experiment: Mitochondrial membrane potential (TMRE), IMR90; settings: single drug alone (4 mM PSA or PA; 10 μM gossypol), 48 hours
Experimental: as §4

[11] = tested on: A549 cells; experiment: Cell apoptosis (Annexin V-FITC/PI flow cytometry), A549; settings: single drug alone (4 mM PSA or PA; 10 μM gossypol), 48 hours
Experimental: (§5) First, A549 cells, UACC62 cells, and IMR90 cells, as a normal control, were cultured. The cultured cells were treated with a drug mixture of a 4 mM […] inhibitor (PSA or PA), which is an MAS inhibitor, and 10 μM gossypol or with only one of the drugs and cultured in the same manner as described above for 48 hours. The medium was removed from the cultured cells, followed by washing the cells twice with cold PBS and centrifugation at 1,400 rpm for 3 minutes, and a binding buffer was added thereto so that concentration was 1×10^6 cells/[…]. Then, a […] buffer was transferred to a 5-mL culture tube and 5 μl of each of Annexin V-FITC and propidium iodine (PI) was added thereto. Mixing was performed by slowly vortexing the tube, and then the cells were incubated in a dark room at room temperature for 15 minutes. After incubation, a binding buffer (400 μl) was added thereto and the degree of increase in cell apoptosis was examined by a flow cytometer.

[12] = tested on: UACC62 cells; experiment: Cell apoptosis (Annexin V-FITC/PI flow cytometry), UACC62; settings: single drug alone (4 mM PSA or PA; 10 μM gossypol), 48 hours
Experimental: as §5

[13] = tested on: IMR90 cells (normal control); experiment: Cell apoptosis (Annexin V-FITC/PI flow cytometry), IMR90; settings: single drug alone (4 mM PSA or PA; 10 μM gossypol), 48 hours
Experimental: as §5

`O=C1C=CC(=O)N1c1ccc2ccc3cccc4ccc1c2c34` [NPM, N-(1-pyrenyl)maleimide] was tested, and the “effect of inhibiting cancer cell proliferation” value [1] was “could be exhibited”.

For `O=C(O)C(=O)c1ccccc1C(=O)O` [PA, phthalonic acid], the “intracellular ATP levels” value [2] was “reduced” and the “intracellular ATP levels” value [3] was “reduced”.

With `O=C(O)CC(C(=O)O)c1ccccc1` (stereo not shown) [PSA, phenyl succinic acid] the “level of cancer cell line proliferation” value [4] was “reduced in a manner dependent upon the concentration of added PSA”, the “level of cancer cell line proliferation” value [5] was “reduced in a manner dependent upon the concentration of added PSA” and the cell proliferation [6] was “not significantly inhibited”. For the same molecule, the “intracellular ATP levels” value [2] was “reduced” and the “intracellular ATP levels” value [3] was “reduced”.

`Cc1cc2c(C(C)C)c(O)c(O)c(C=O)c2c(O)c1-c1c(C)cc2c(C(C)C)c(O)c(O)c(C=O)c2c1O` [gossypol] was tested, and the “effect of inhibiting a cell proliferation level, gossypol alone versus NPM alone” value ([7]; 10 μM gossypol alone vs 25 μM NPM) was “more significantly exhibited”, the “reduction in the cell proliferation level, gossypol alone versus PSA or PA alone” value ([7]; 10 μM gossypol alone vs 4 mM PSA or PA alone) was “more prominent” and the “intracellular ATP production level, difference between gossypol alone and PSA or PA alone” value [8] was “no significant difference”. The mitochondrial membrane potential [9] was “significant decrease”, the mitochondrial membrane potential [10] was “no significant change” and the cell apoptosis [11] was “insignificant extent”. For the same molecule, the cell apoptosis [12] was “insignificant extent” and the cell apoptosis [13] was “no significant cell apoptosis”.
